Laboratory results: US20150051269A1, “Drug Delivery Conjugate Capable of Controlled Release, and Use Thereof” (POSTECH ACADEMY-INDUSTRY FOUNDATION, priority 2012, published 2015)

Columns and labels:
[1] = Surface charge in aqueous solution (Zetasizer Nano Z); format: physicochemical
Procedure: (§1) To measure the sizes and surface charges of the drug delivery conjugates prepared by the method of Example 1, the surface charges and sizes of the drug delivery conjugates in an aqueous solution were measured using a surface charge measurement system (Zetasizer Nano Z) and a size measurement system (Zetasizer Nano S).

[2] = Size of drug delivery conjugates in aqueous solution (Zetasizer Nano S); format: physicochemical; settings: diameter in aqueous solution
Procedure: as §1

## CC(=O)O[C@H]1C(=O)[C@@]2(C)[C@H]([C@H](OC(=O)c3ccccc3)[C@]3(O)C[C@H](OC(=O)[C@H](O)[C@@H](NC(=O)c4ccccc4)c4ccccc4)C(C)=C1C3(C)C)[C@]1(OC(C)=O)CO[C@@H]1C[C@@H]2O [PTX, paclitaxel]
[1]
  Zeta potential (mV): −39.2 ± 1.50 mV
[2]
  Size (d, nm): 806.4 ± 235.9 nm
